Converted amounts (≈) assume the structure as drawn. The source made the active and inactive calls. No cut-off for these calls is given here.
How the values were obtained:
Type in all cases: functional
[1] = test system: Bacillus subtilis; experiment: Antimicrobial activity against Bacillus subtilis ATCC 6633 assessed as growth inhibition after 24 hr by NCCLS broth dilution method
[2] = test system: Escherichia coli; experiment: Antimicrobial activity against Escherichia coli ATCC 25922 assessed as growth inhibition after 24 hr by NCCLS broth dilution method
[3] = test system: Pseudomonas aeruginosa; experiment: Antimicrobial activity against Pseudomonas aeruginosa ATCC 27853 assessed as growth inhibition after 24 hr by NCCLS broth dilution method
[4] = test system: Staphylococcus aureus; experiment: Antimicrobial activity against Staphylococcus aureus ATCC 25923 assessed as growth inhibition after 24 hr by NCCLS broth dilution method

Row | SMILES | MIC [1] | MIC ([1]; ATCC 6633, 24 h) [µg/mL] | MIC [2] | MIC ([2]; ATCC 25922, 24 h) [µg/mL] | MIC [3] | MIC ([3]; ATCC 27853, 24 h) [µg/mL] | MIC [4] | MIC ([4]; ATCC 25923, 24 h) [µg/mL]
1 | CN1CCN(c2cc3ncnc(Sc4nnc(-c5cccnc5)o4)c3cc2NC(=O)NC2CCCCC2)CC1 | inactive | 12.5 (≈ 22.9 µM) | inactive | 25 (≈ 45.8 µM) | inactive | 50 (≈ 91.6 µM) | inactive | 50 (≈ 91.6 µM)
2 | CN1CCN(c2cc3ncnc(Sc4nnc(-c5cccnc5)o4)c3cc2NC(=O)Nc2ccc(Cl)cc2)CC1 | inactive | 6.25 (≈ 10.9 µM) | inactive | 12.5 (≈ 21.8 µM) | inactive | 50 (≈ 87.1 µM) | inactive | 25 (≈ 43.5 µM)
3 | Cc1cccc(NC(=O)Nc2ccc3ncnc(Sc4nnc(-c5cccnc5)o4)c3c2)c1 | inactive | 25 (≈ 54.9 µM) | inactive | 12.5 (≈ 27.4 µM) | inactive | 50 (≈ 110 µM) | inactive | 25 (≈ 54.9 µM)
4 | COc1ccccc1NC(=S)Nc1cc2c(Sc3nnc(-c4cccnc4)o3)ncnc2cc1N1CCN(C)CC1 | inactive | 25 (≈ 42.7 µM) | inactive | 25 (≈ 42.7 µM) | inactive | 50 (≈ 85.4 µM) | inactive | 12.5 (≈ 21.3 µM)
5 | O=C(Nc1ccccc1)Nc1ccc2ncnc(Sc3nnc(-c4cccnc4)o3)c2c1 | inactive | 25 (≈ 56.6 µM) | inactive | 25 (≈ 56.6 µM) | inactive | 50 (≈ 113 µM) | inactive | 12.5 (≈ 28.3 µM)
6 | Cc1cccc(NC(=O)Nc2cc3c(Sc4nnc(-c5cccnc5)o4)ncnc3cc2N2CCN(C)CC2)c1 | inactive | 25 (≈ 45.2 µM) | inactive | 25 (≈ 45.2 µM) | inactive | 50 (≈ 90.3 µM) | inactive | 50 (≈ 90.3 µM)
7 | CN1CCN(c2cc3ncnc(Sc4nnc(-c5cccnc5)o4)c3cc2NC(=S)Nc2ccccc2Cl)CC1 | inactive | 6.25 (≈ 10.6 µM) | inactive | 25 (≈ 42.4 µM) | inactive | 12.5 (≈ 21.2 µM) | inactive | 25 (≈ 42.4 µM)
8 | Cc1cccc(NC(=S)Nc2ccc3ncnc(Sc4nnc(-c5cccnc5)o4)c3c2)c1 | inactive | 75 (≈ 159 µM) | inactive | 50 (≈ 106 µM) | inactive | 100 (≈ 212 µM) | inactive | 75 (≈ 159 µM)
9 | CC1COc2c(N3CCN(C)CC3)c(F)cc3c(=O)c(C(=O)O)cn1c23 (stereo not drawn) [OFLOXACIN] | inactive | 0.125 (≈ 0.346 µM) | inactive | 0.125 (≈ 0.346 µM) | inactive | 10 (≈ 27.7 µM) | inactive | 0.25 (≈ 0.692 µM)
10 | S=C(Nc1ccc2ncnc(Sc3nnc(-c4cccnc4)o3)c2c1)Nc1ccccc1Cl | inactive | 50 (≈ 102 µM) | inactive | 25 (≈ 50.8 µM) | inactive | 50 (≈ 102 µM) | inactive | 25 (≈ 50.8 µM)
11 | CN1CCN(c2cc3ncnc(Sc4nnc(-c5cccnc5)o4)c3cc2NC(=O)Nc2ccccc2)CC1 | inactive | 12.5 (≈ 23.2 µM) | inactive | 25 (≈ 46.3 µM) | inactive | 50 (≈ 92.7 µM) | inactive | 25 (≈ 46.3 µM)
12 | Cc1ccc(NC(=S)Nc2cc3c(Sc4nnc(-c5cccnc5)o4)ncnc3cc2N2CCN(C)CC2)cc1 | inactive | 50 (≈ 87.8 µM) | inactive | 50 (≈ 87.8 µM) | inactive | 50 (≈ 87.8 µM) | inactive | 12.5 (≈ 21.9 µM)
13 | CN1CCN(c2cc3ncnc(Sc4nnc(-c5cccnc5)o4)c3cc2NC(=S)Nc2cccc(Cl)c2)CC1 | inactive | 25 (≈ 42.4 µM) | inactive | 12.5 (≈ 21.2 µM) | inactive | 50 (≈ 84.7 µM) | inactive | 6.25 (≈ 10.6 µM)
14 | Cc1ccc(NC(=S)Nc2ccc3ncnc(Sc4nnc(-c5cccnc5)o4)c3c2)cc1 | inactive | 25 (≈ 53 µM) | inactive | 50 (≈ 106 µM) | inactive | 75 (≈ 159 µM) | inactive | 25 (≈ 53 µM)
15 | Cc1ccccc1NC(=S)Nc1ccc2ncnc(Sc3nnc(-c4cccnc4)o3)c2c1 | inactive | 50 (≈ 106 µM) | inactive | 25 (≈ 53 µM) | inactive | 100 (≈ 212 µM) | inactive | 75 (≈ 159 µM)
16 | CN1CCN(c2cc3ncnc(Sc4nnc(-c5cccnc5)o4)c3cc2NC(=S)Nc2ccc(Cl)cc2)CC1 | inactive | 12.5 (≈ 21.2 µM) | inactive | 50 (≈ 84.7 µM) | inactive | 50 (≈ 84.7 µM) | inactive | 25 (≈ 42.4 µM)

Source: ChEMBL document CHEMBL3046216, “Synthesis, biological evaluation and QSAR study of a series of substituted quinazolines as antimicrobial agents” (2013)
